In publication PMC7838189, “Natural podophyllotoxin analog 4DPG attenuates EMT and colorectal cancer progression via activation of checkpoint kinase 2” (Cell Death Discovery, 2021):
Values after ≈ are worked out from the molar mass of the structure shown.

Assays:
[1] = Distribution coefficient determination; assay type: physicochemical; settings: pH 7.4
Method: (§1) Solubility and distribution coefficient are among the major physicochemical properties of a drug that greatly determine its absorption in physiological compartments. […] The distribution coefficient (logD, pH 7.4) of 4DPG was determined to be 0.815 ± 0.19, which indicates the slightly lipophilic nature of the molecule. For administration to animals, the appropriate quantity of 4DPG was formulated in the pre-calculated volume of saline with the help of a solubilizer (Tween-80). Next, to assess the hemocompatibility of 4DPG and establish if the compound could be considered safe for intravenous (i.v.) administration, we performed in vitro hemolysis assay by incubating the RBCs with increasing concentrations of the molecule.
(§2) The distribution coefficient, solubility, and hemocompatibility of 4DPG was determined adopting our previously described protocol[37],[40]. For hemolysis assay, increasing concentrations (5, 10, and 20 µg/mL) of 4DPG were employed. Distilled water (DW) and PBS were considered as […].

[2] = tested on: HCT-116/5-FU-R cells; test: Matrigel invasion assay; assay type: cell-based; settings: SiChk2 and PV1019 pre-treated conditions, 48 h
Text: To examine whether 4DPG-mediated repression of Vimentin and invasiveness is a Chk2-dependent process, we performed genetic silencing of endogenous Chk2 in the 5-FU-R cells using target-specific SiRNAs.
Fig. 3 Chk2-dependent role of 4DPG in modulating p53 and repressing Vimentin expression in 5-FU-R cells. A Immunocytochemistry results showing the Vimentin expression level in SW-620/5-FU-R cells treated/transfected with scramble, SiChk2, scramble plus 4DPG, SiChk2 plus 4DPG, vehicle, PV1019, 4DPG, and PV1019 plus 4DPG for 48 h. Scale bars: 50 µm. […] C Matrigel invasion assay results showing invaded HCT-116/5-FU-R and SW-620/5-FU-R cells following 48 h of transient transfection with GFP and GFP-Chk2 plasmid construct. Scale bars: 50 µm. D Quantification of the number of invaded cells per field from the above experimental conditions. n = 3, error bars, mean ± SD; *P < 0.05, ***P < 0.001. E Immunocytochemistry results displaying Vimentin expression levels in HCT-116/5-FU-R and SW-620/5-FU-R cells after 48 h of transient transfection with pCDNA3 and/or HA-Chk2 plasmid construct. Scale bars: 50 µm. F Immunoprecipitation with Vimentin or p53 followed by western blotting analysis of p53 in SW-620/5-FU-R cells treated with vehicle and/or 4DPG (300 nM) for 48 h. […]

[3] = tested on: HCT-116/5-FU-R cells; test: Immunocytochemistry of Vimentin; assay type: cell-based; settings: 300 nM, 48 h
Text: 4DPG, a podophyllotoxin class of natural product anticancer compound (Supplementary Fig. S2A) has been recently described by our research group for its potent antitumor and anti-metastatic properties against aggressive cancers[31],[32]. Further, 4DPG augments phosphorylation and activation of Chk2 (Thr68) leading to suppression of EMT and invasiveness of p53-defective cancer cells. To investigate the effect of 4DPG on phosphorylation and expression levels of Chk2 in HCT-116/5-FU-R, SW-620/5-FU-R, and HT-29/5-FU-R cells, we treated these cells for 48 h with increasing concentrations of the compound, and whole-cell lysates were subjected to western blotting analysis. […] To determine the effect of 4DPG on the invasion abilities of these 5-FU-R cells, we performed in situ fluorescent gelatin degradation assay following our pre-standardized protocol[31],[37]. In physiological conditions, this assay mimics the extracellular matrix degradation by aggressive tumor cells undergoing invasion–metastasis process.
Fig. 2 4DPG activates Chk2 and attenuates EMT in 5-FU-R CRC cells. […] G Quantification of the area of degradation through Image J software. n = 3, error bars, mean ± SD; ***P < 0.001. […]

[4] = Solubility determination; assay type: physicochemical
Method: as §1, §2

COc1cc([C@@H]2c3cc4c(cc3C[C@H]3COC(=O)[C@@H]32)OCO4)cc(OC)c1O[C@@H]1O[C@H](CO)[C@@H](O)[C@H](O)[C@H]1O [4DPG, 4′-demethyl-deoxypodophyllotoxin glucoside]
distribution coefficient (logD) [1]: 0.815 ± 0.19 | effect of 4DPG to block invasion abilities [2]: distinctly reduced | Vimentin expression level (immunocytochemistry) [3]: considerable decrease | solubility ([4]; simulated gastric fluid (SGF, pH 1.2)): 0.53938 ± 0.091 mg/mL (≈ 987 µM) | solubility ([4]; simulated intestinal fluid (SIF, pH 6.8)): 0.71292 ± 0.172 mg/mL (≈ 1300 µM)
